# Test results published in patent CN106905199A, “一种基于聚集诱导发光原理用于选择性检测半胱氨酸的荧光试剂的合成及应用” (Gannan Normal University, priority 2017, dated 2017).
# Legend:
# [1] = Response time of TPENNO2 to Cys (fluorescence vs incubation time); details: 25 μM TPENNO2, PBS (50 mM, pH 7.4, 2.5% DMSO), 200 μM Cys, 37℃
# [2] = Reaction kinetics of TPENNO2 with the thiol of GSH
# [3] = Selectivity test of TPENNO2: GSH; details: 300 μM GSH, 37℃, 30 min, Ex=341 nm
# [4] = Selectivity test of TPENNO2: essential amino acids; details: 25 μM TPENNO2 in PBS, 300 μM analyte, 37℃, 30 min, Ex=341 nm
# [5] = Selectivity test of TPENNO2: Hcy; details: 300 μM Hcy, 37℃, 30 min, Ex=341 nm
# [6] = Reaction kinetics of TPENNO2 with the thiol of Cys
# [7] = system: thiol compounds in HeLa cells [HeLa细胞内巯基化合物]; assay: Fluorescence imaging of intracellular thiols in HeLa cells; format: cell-based, human
compound,measurement,setting,value
O=[N+]([O-])c1ccc(S(=O)(=O)Nc2ccc(C(=C(c3ccccc3)c3ccccc3)c3ccccc3)cc2)c([N+](=O)[O-])c1 [TPENNO2],incubation time after which fluorescence intensity is essentially saturated,[1],30 min
same,first-order reaction kinetic constant with the thiol of GSH,[2],0.0048 min⁻¹
same,change of fluorescence intensity after reaction with GSH,[3]; 25 μM TPENNO2 in PBS,没有明显增强
same,interference of GSH with Cys detection,[3],干扰均较小
same,change of fluorescence intensity after reaction with essential amino acids other than Cys,[4],没有明显增强
same,change of fluorescence intensity after reaction with Hcy,[5]; 25 μM TPENNO2 in PBS,没有明显增强
same,interference of Hcy with Cys detection,[5],干扰均较小
same,first-order reaction kinetic constant with the thiol of Cys,[6],0.13 min⁻¹
same,fluorescence signal in HeLa cells,"[7]; 4 μM TPENNO2, 20 min, no pretreatment, Ex 405 nm, 450-550 nm collected",绿色荧光信号
same,fluorescence signal in HeLa cells after Cys pretreatment,"[7]; 0.5 mM Cys 24 h, then 4 μM TPENNO2, 20 min",荧光信号增强
same,fluorescence signal in HeLa cells after NEM pretreatment,"[7]; 0.5 mM NEM (N-ethylmaleimide, thiol-consuming) 15 min, then 4 μM TPENNO2, 20 min",荧光信号减弱
